Literature values as cited in patent US20050113418A1, “Administration of pharmaceuticals” (priority 1996, published 2005).

Conditions: Lind et al, Gut 1983

plasma half-life: 30 to 60 min
SMILES: COc1ccc2[nH]c([S+]([O-])Cc3ncc(C)c(OC)c3C)nc2c1 (stereo not shown) [Omeprazole, omeprazole]
